Source: ChEMBL document CHEMBL1134086, “Discovery of potent and selective phenylalanine derived CCR3 receptor antagonists. Part 2” (Bioorg Med Chem Lett, 2001)

Experiments:
[1] = biological target: T1, C-C chemokine receptor type 3 (Homo sapiens, UniProt P51677); test: Antagonist activity against C-C chemokine receptor type 3; type: functional
T1 sequence (P51677 whole entry): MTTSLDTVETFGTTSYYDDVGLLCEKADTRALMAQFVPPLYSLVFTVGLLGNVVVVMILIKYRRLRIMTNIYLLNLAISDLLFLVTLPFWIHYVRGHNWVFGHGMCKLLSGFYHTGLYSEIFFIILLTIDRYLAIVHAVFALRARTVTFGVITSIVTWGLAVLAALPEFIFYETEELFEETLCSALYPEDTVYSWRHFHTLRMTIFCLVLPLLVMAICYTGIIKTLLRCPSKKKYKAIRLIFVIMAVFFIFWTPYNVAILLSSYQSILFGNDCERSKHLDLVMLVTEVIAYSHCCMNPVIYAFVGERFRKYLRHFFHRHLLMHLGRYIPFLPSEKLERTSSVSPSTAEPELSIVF

Homo sapiens = species on record: Homo sapiens; test: Ability to block the eotaxin induced intracellular calcium mobilization in primary human eosinophils was determined; type: functional

Compound	IC50 [1]	IC50 (Homo sapiens)
C[C@H](NC(=O)[C@H](Cc1ccncc1)NC(=O)c1cccc2ccccc12)C(=O)Nc1ccc(-c2ccccc2)cc1	600 nM	
Cc1ccc(C(=O)N[C@@H](Cc2ccc(Cl)cc2)C(=O)N[C@@H](C)C(=O)Nc2ccc(Cl)cc2)c(C)c1	45 nM	
COc1ccc(NC(=O)[C@H](C)NC(=O)[C@H](Cc2cscn2)NC(=O)c2cccc3ccccc23)cc1	500 nM	
C[C@H](NC(=O)[C@H](Cc1ccc([N+](=O)[O-])cc1)NC(=O)c1cccc2ccccc12)C(=O)Nc1ccccc1	190 nM	
COc1ccc(NC(=O)[C@H](C)NC(=O)[C@H](Cc2ccncc2)NC(=O)c2cccc3ccccc23)cc1	> 1220 nM	
O=C(N[C@@H](Cc1ccc([N+](=O)[O-])cc1)C(=O)N[C@H](C(=O)Nc1ccccc1)c1ccccc1)c1cccc2ccccc12	116 nM	
C[C@H](NC(=O)[C@H](Cc1ccc(Cl)cc1)NC(=O)c1cccc2ccccc12)C(=O)Nc1cccnc1	27 nM	
O=C(CNC(=O)[C@H](Cc1ccc([N+](=O)[O-])cc1)NC(=O)c1cccc2ccccc12)Nc1ccccc1	400 nM	
COc1ccccc1NC(=O)[C@H](C)NC(=O)[C@H](Cc1ccc(C#N)cc1)NC(=O)c1cccc2ccccc12	125 nM	
C[C@H](NC(=O)[C@H](Cc1cscn1)NC(=O)c1cccc2ccccc12)C(=O)Nc1ccc(Cl)cc1	800 nM	
C[C@@H](C(=O)Nc1ccccc1)N(C)C(=O)[C@H](Cc1ccc([N+](=O)[O-])cc1)NC(=O)c1cccc2ccccc12	65 nM	
CC(NC(=O)[C@H](Cc1ccc([N+](=O)[O-])cc1)NC(=O)c1cccc2ccccc12)C(=O)NCc1ccccc1 (some centres not stated)	300 nM	
COc1ccc(NC(=O)[C@H](C)NC(=O)[C@H](CC2CCCCC2)NC(=O)c2cccc3ccccc23)cc1	700 nM	
COc1ccc(NC(=O)[C@H](C)NC(=O)[C@H](Cc2ccc(Cl)cc2)NC(=O)c2cccc3ccccc23)cc1	45 nM	
COc1ccc(C[C@H](NC(=O)c2cccc3ccccc23)C(=O)N[C@@H](C)C(=O)Nc2ccccc2OC)cc1	15 nM	
COc1ccc(C[C@H](NC(=O)c2cccc3ccccc23)C(=O)N[C@@H](C)C(=O)Nc2ccc(C#N)cc2)cc1	250 nM	
COc1ccc(NC(=O)[C@H](C)NC(=O)[C@H](Cc2ccc(C#N)cc2)NC(=O)c2cccc3ccccc23)cc1	90 nM	
C[C@H](NC(=O)[C@H](Cc1ccc(Cl)cc1)NC(=O)c1cccc2ccccc12)C(=O)Nc1ccccc1	5 nM	15 nM
C[C@H](NC(=O)[C@H](Cc1ccc([N+](=O)[O-])cc1)NC(=O)c1cccc2ccccc12)C(=O)N(C)c1ccccc1	600 nM	

Results, then the molecule that gave them:

IC50 [1]	IC50 (Homo sapiens)	Compound
350 nM		C=C(NC(=O)[C@H](Cc1ccc([N+](=O)[O-])cc1)NC(=O)c1cccc2ccccc12)C(=O)OCC
20 nM		C[C@@H](NC(=O)[C@H](Cc1ccc([N+](=O)[O-])cc1)NC(=O)c1cccc2ccccc12)C(=O)OC(C)(C)C
32000 nM		O=C(N[C@@H](Cc1ccc([N+](=O)[O-])cc1)c1nccs1)c1cccc2ccccc12
12500 nM		O=C(N[C@@H](Cc1ccc([N+](=O)[O-])cc1)c1nc(C(=O)N2CCc3ccccc3C2)cs1)c1cccc2ccccc12
7700 nM		O=C(Nc1ccccc1)c1csc([C@H](Cc2ccc([N+](=O)[O-])cc2)NC(=O)c2cccc3ccccc23)n1
3 nM		CCOC(=O)[C@@H](C)NC(=O)[C@H](Cc1ccc([N+](=O)[O-])cc1)NC(=O)c1cccc2ccccc12
563 nM	600 nM	O=C(N[C@@H](Cc1ccc([N+](=O)[O-])cc1)C1=NCCO1)c1cccc2ccccc12
213 nM		CCOC(=O)C1COC([C@H](Cc2ccc([N+](=O)[O-])cc2)NC(=O)c2cccc3ccccc23)=N1 (some centres not stated)
666 nM		CCNC(=O)C(C)NC(=O)[C@H](Cc1ccc([N+](=O)[O-])cc1)NC(=O)c1cccc2ccccc12 (some centres not stated)
	38 nM	COC(=O)[C@H](Cc1ccc([N+](=O)[O-])cc1)NC(=O)c1cccc2ccccc12
1130 nM		CC(NC(=O)[C@H](Cc1ccc([N+](=O)[O-])cc1)NC(=O)c1cccc2ccccc12)C(=O)N1CCCC1 (some centres not stated)
663 nM		CCOC(=O)c1csc([C@H](Cc2ccc([N+](=O)[O-])cc2)NC(=O)c2cccc3ccccc23)n1
383 nM		CCOC(=O)[C@H](C)NC(=O)[C@H](Cc1ccc([N+](=O)[O-])cc1)NC(=O)c1cccc2ccccc12
500 nM		CCOC(=O)c1coc([C@H](Cc2ccc([N+](=O)[O-])cc2)NC(=O)c2cccc3ccccc23)n1
18000 nM		CCNC(=O)c1csc([C@H](Cc2ccc([N+](=O)[O-])cc2)NC(=O)c2cccc3ccccc23)n1
22500 nM		O=C(N[C@@H](Cc1ccc([N+](=O)[O-])cc1)c1cnco1)c1cccc2ccccc12 (racemic)
> 33000 nM		O=C(N[C@@H](Cc1ccc([N+](=O)[O-])cc1)c1nnco1)c1cccc2ccccc12 (racemic)
> 33000 nM		O=C(N[C@@H](Cc1ccc([N+](=O)[O-])cc1)c1ncco1)c1cccc2ccccc12 (racemic)
> 33000 nM		CCn1ccnc1[C@H](Cc1ccc([N+](=O)[O-])cc1)NC(=O)c1cccc2ccccc12 (racemic; form 1)
> 33000 nM		CCn1ccnc1[C@H](Cc1ccc([N+](=O)[O-])cc1)NC(=O)c1cccc2ccccc12 (racemic; form 2)
17000 nM		CCn1ccnc1[C@H](Cc1ccc([N+](=O)[O-])cc1)NC(=O)c1cccc2ccccc12 (racemic; form 3)
